Laboratory results published in patent US20230017045A1, “PYRIDINE AND PYRIMIDINE CARBOXYLATE HERBICIDES AND METHODS OF USE THEREOF” (Dow AgroSciences LLC, priority 2017, published 2023).
Where two headings read alike, the source gives them in different places.

Tested on: test plant species
Assay: Post-emergent herbicidal activity test (greenhouse, foliar spray, visual growth reduction)
Format: in vivo
Details: post-emergence, 336 h, 140 g ai/ha
Method in brief: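 Scoring used a 0 to 100 percent visual scale of growth reduction against solvent-treated controls, read 14 d after spraying. Applications went onto plants at first or second true leaf stage, 187 L/ha, with crop oil concentrate and X-77 surfactant in the carrier. Post-treatment watering was by subirrigation to avoid wash-off.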

[1] = ECHCG: barnyardgrass (Echinochloa crus-galli), 14 days after application, read-out: Visual Growth Reduction (%) 14 Days After Application, ECHCG
[2] = IPOHE: ivy-leaf morning glory (Ipomoea hederacea), 14 days after application, read-out: Visual Growth Reduction (%) 14 Days After Application, IPOHE
[3] = KCHSC: kochia (Bassia scoparia), 14 days after application, read-out: Visual Growth Reduction (%) 14 Days After Application, KCHSC
[4] = ORYSA: rice (Oryza sativa), 14 days after application, read-out: Visual Growth Reduction (%) 14 Days After Application, ORYSA
[5] = SETFA: giant foxtail (Setaria faberi), 14 days after application, read-out: Visual Growth Reduction (%) 14 Days After Application, SETFA
[6] = SORVU: grain sorghum (Sorghum vulgare), 14 days after application, read-out: Visual Growth Reduction (%) 14 Days After Application, SORVU
[7] = STEME: common chickweed (Stellaria media), 14 days after application, read-out: Visual Growth Reduction (%) 14 Days After Application, STEME
[8] = TRZAS: wheat, spring (Triticum aestivum), 14 days after application, read-out: Visual Growth Reduction (%) 14 Days After Application, TRZAS
[9] = blackgrass (Alopecurus myosuroides), 14 Days After Application, read-out: Visual Growth Reduction (%) ALOMY
[10] = canada thistle (Cirsium arvense), 14 Days After Application, read-out: Visual Growth Reduction (%) CIRAR
[11] = crabgrass (Digitaria sanguinalis), 14 Days After Application, read-out: Visual Growth Reduction (%) DIGSA
[12] = lambsquarters (Chenopodium album), 14 Days After Application, read-out: Visual Growth Reduction (%) CHEAL
[13] = redroot pigweed (Amaranthus retroflexus), 14 Days After Application, read-out: Visual Growth Reduction (%) AMARE
[14] = wild oat (Avena fatua), 14 Days After Application, read-out: Visual Growth Reduction (%) AVEFA
[15] = yellow nutsedge (Cyperus esculentus), 14 Days After Application, read-out: Visual Growth Reduction (%) CYPES
[16] = ALOMY: blackgrass (Alopecurus myosuroides), 14 days after application, read-out: Visual Growth Reduction (%) 14 Days After Application, ALOMY
[17] = AMARE: redroot pigweed (Amaranthus retroflexus), 14 days after application, read-out: Visual Growth Reduction (%) 14 Days After Application, AMARE
[18] = AVEFA: wild oat (Avena fatua), 14 days after application, read-out: Visual Growth Reduction (%) 14 Days After Application, AVEFA
[19] = CHEAL: lambsquarters (Chenopodium album), 14 days after application, read-out: Visual Growth Reduction (%) 14 Days After Application, CHEAL
[20] = CIRAR: canada thistle (Cirsium arvense), 14 days after application, read-out: Visual Growth Reduction (%) 14 Days After Application, CIRAR
[21] = CYPES: yellow nutsedge (Cyperus esculentus), 14 days after application, read-out: Visual Growth Reduction (%) 14 Days After Application, CYPES
[22] = DIGSA: crabgrass (Digitaria sanguinalis), 14 days after application, read-out: Visual Growth Reduction (%) 14 Days After Application, DIGSA

SMILES	pest or weed control at 140 g/ha [1]	pest or weed control at 140 g/ha [2]	pest or weed control at 140 g/ha [3]	pest or weed control at 140 g/ha [4]	pest or weed control at 140 g/ha [5]	pest or weed control at 140 g/ha [6]	pest or weed control at 140 g/ha [7]	pest or weed control at 140 g/ha [8]	pest or weed control at 140 g/ha [9]	pest or weed control at 140 g/ha [10]	pest or weed control at 140 g/ha [11]	pest or weed control at 140 g/ha [12]	pest or weed control at 140 g/ha [13]	pest or weed control at 140 g/ha [14]	pest or weed control at 140 g/ha [15]	pest or weed control at 140 g/ha [16]	pest or weed control at 140 g/ha [18]	pest or weed control at 140 g/ha [19]	pest or weed control at 140 g/ha [20]	pest or weed control at 140 g/ha [21]	also measured
COC(=O)c1nc(-c2ccc(C(F)(F)F)cc2OC)ncc1Cl [F313, methyl 5-chloro-2-(2-methoxy-4-(trifluoromethyl)phenyl)pyrimidine-4-carboxylate]	60 to 74%	95 to 100%	0 to 29%	0 to 29%	60 to 74%	85 to 94%	0 to 29%	0 to 29%	0 to 29%	45 to 59%	75 to 84%	30 to 44%	45 to 59%	0 to 29%	0 to 29%	–	–	–	–	–	–
COC(=O)c1nc(-c2ccc(C(F)(F)F)cc2F)c(F)cc1F [F375, Methyl 3,5-difluoro-6-(2-fluoro-4-(trifluoromethyl)phenyl)picolinate]	85 to 94%	95 to 100%	60 to 74%	0 to 29%	85 to 94%	85 to 94%	0 to 29%	75 to 84%	45 to 59%	85 to 94%	85 to 94%	85 to 94%	95 to 100%	60 to 74%	0 to 29%	–	–	–	–	–	–
COC(=O)c1nc(-c2ccc(OCC(F)(F)F)cc2)c(F)cc1Cl [F163, Methyl 3-chloro-5-fluoro-6-(4-(2,2,2-trifluoroethoxy)phenyl) picolinate]	0 to 29%	45 to 59%	0 to 29%	0 to 29%	0 to 29%	0 to 29%	0 to 29%	0 to 29%	–	–	–	–	–	–	–	0 to 29%	0 to 29%	45 to 59%	0 to 29%	0 to 29%	pest or weed control at 140 g/ha [17]: 30 to 44%; pest or weed control at 140 g/ha [22]: 0 to 29%
O=C(O)c1nc(-c2c(Cl)cc(C(F)(F)F)cc2[N+](=O)[O-])ccc1Cl [F224, 3-Chloro-6-(2-chloro-6-nitro-4-(trifluoromethyl)phenyl)picolinic acid]	0 to 29%	95 to 100%	45 to 59%	45 to 59%	45 to 59%	60 to 74%	0 to 29%	0 to 29%	0 to 29%	45 to 59%	75 to 84%	95 to 100%	85 to 94%	0 to 29%	0 to 29%	–	–	–	–	–	–
COC(=O)c1nc(-c2ccc(C(F)(F)F)c(C)c2)ccc1Cl [F308, Methyl 3-chloro-6-(3-methyl-4-(trifluoromethyl)phenyl)picolinate]	0 to 29%	0 to 29%	0 to 29%	0 to 29%	0 to 29%	0 to 29%	0 to 29%	0 to 29%	0 to 29%	0 to 29%	0 to 29%	0 to 29%	45 to 59%	0 to 29%	0 to 29%	–	–	–	–	–	–
Cc1cnc(-c2ccc(Cl)c(C(=O)O)n2)c(F)c1 [F208, 5-Chloro-3′-fluoro-5′-methyl-[2,2′-bipyridine]-6-carboxylic acid]	0 to 29%	0 to 29%	0 to 29%	0 to 29%	0 to 29%	0 to 29%	0 to 29%	0 to 29%	0 to 29%	0 to 29%	0 to 29%	85 to 94%	0 to 29%	0 to 29%	0 to 29%	–	–	–	–	–	–
CCOC(=O)c1nc(-c2ccc(Cl)c(OC)c2F)cc(OCC)c1N [F77, ethyl 3-amino-6-(4-chloro-2-fluoro-3-methoxyphenyl)-4-ethoxypicolinate]	0 to 29%	0 to 29%	–	0 to 29%	0 to 29%	0 to 29%	0 to 29%	0 to 29%	–	–	–	–	–	–	–	0 to 29%	0 to 29%	45 to 59%	0 to 29%	0 to 29%	pest or weed control at 140 g/ha [22]: 0 to 29%
COC(=O)c1nc(-c2ccc(C(F)(F)F)cc2Cl)ncc1OC [F104, Methyl 2-(2-chloro-4-(trifluoromethyl)phenyl)-5-methoxypyrimidine-4-carboxylate]	0 to 29%	60 to 74%	0 to 29%	0 to 29%	0 to 29%	60 to 74%	0 to 29%	0 to 29%	–	–	–	–	–	–	–	0 to 29%	0 to 29%	0 to 29%	0 to 29%	0 to 29%	pest or weed control at 140 g/ha [17]: 0 to 29%; pest or weed control at 140 g/ha [22]: 60 to 74%
COC(=O)c1nc(-c2cc3c(cc2Cl)OCO3)ccc1Cl [F144, Methyl 3-chloro-6-(6-chlorobenzo[d] [1,3]dioxol-5-yl) picolinate]	0 to 29%	75 to 84%	0 to 29%	0 to 29%	0 to 29%	0 to 29%	0 to 29%	0 to 29%	–	–	–	–	–	–	–	0 to 29%	0 to 29%	75 to 84%	0 to 29%	0 to 29%	pest or weed control at 140 g/ha [17]: 45 to 59%; pest or weed control at 140 g/ha [22]: 0 to 29%
COC(=O)c1nc(-c2ccc(-c3ccc(F)cc3)cc2Cl)ccc1Cl [F25, methyl 3-chloro-6-(3-chloro-4′-fluoro-[1, 1′-biphenyl]-4-yl) picolinate]	0 to 29%	0 to 29%	0 to 29%	0 to 29%	0 to 29%	30 to 44%	0 to 29%	0 to 29%	–	–	–	–	–	–	–	0 to 29%	0 to 29%	0 to 29%	0 to 29%	0 to 29%	pest or weed control at 140 g/ha [17]: 0 to 29%; pest or weed control at 140 g/ha [22]: 0 to 29%
